# Reference: the supplement of paper PMC11451515
# Test system: SEM cells
# Assay: cell viability relative to DMSO control; higher = less cytotoxic
# Settings: 48 h
# How it was run: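 Viability values are per-plate percentages of DMSO wells, with background from cell-free wells. Library compounds in DMSO were pin-dosed, in an 11-point threefold series from 47 μM to 0.79 nM, onto NOMO1 or SEM (500 cells/well) or P12-Ichikawa (1000 cells/well) leukemia cells in 1536-well plates (5 μl). Those cells had been adapted for at least four passages in each medium, and CellTiter-Glo One luminescence was read after 48 h at 37°C.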
# [1] = HPLM + 10% dialyzed FBS, 0.000781 µM
# [2] = HPLM + 10% dialyzed FBS, 0.00234 µM
# [3] = HPLM + 10% dialyzed FBS, 0.00702 µM
# [4] = HPLM + 10% dialyzed FBS, 0.0211 µM
# [5] = HPLM + 10% dialyzed FBS, 0.0632 µM
# [6] = HPLM + 10% dialyzed FBS, 0.19 µM
# [7] = HPLM + 10% dialyzed FBS, 0.569 µM
# [8] = HPLM + 10% dialyzed FBS, 1.71 µM
# [9] = HPLM + 10% dialyzed FBS, 5.12 µM
# [10] = HPLM + 10% dialyzed FBS, 15.4 µM
# [11] = HPLM + 10% dialyzed FBS, 46.1 µM
# [12] = RPMI 5 mM glucose + 10% FBS, 0.000781 µM
# [13] = RPMI 5 mM glucose + 10% FBS, 0.00234 µM
# [14] = RPMI 5 mM glucose + 10% FBS, 0.00702 µM
# [15] = RPMI 5 mM glucose + 10% FBS, 0.0211 µM
# [16] = RPMI 5 mM glucose + 10% FBS, 0.0632 µM
# [17] = RPMI 5 mM glucose + 10% FBS, 0.19 µM
# [18] = RPMI 5 mM glucose + 10% FBS, 0.569 µM
# [19] = RPMI 5 mM glucose + 10% FBS, 1.71 µM
# [20] = RPMI 5 mM glucose + 10% FBS, 5.12 µM
# [21] = RPMI 5 mM glucose + 10% FBS, 15.4 µM
# [22] = RPMI 5 mM glucose + 10% FBS, 46.1 µM
# [23] = RPMI 5 mM glucose + 10% dialyzed FBS, 0.000781 µM
# [24] = RPMI 5 mM glucose + 10% dialyzed FBS, 0.00234 µM
# [25] = RPMI 5 mM glucose + 10% dialyzed FBS, 0.00702 µM
# [26] = RPMI 5 mM glucose + 10% dialyzed FBS, 0.0211 µM
# [27] = RPMI 5 mM glucose + 10% dialyzed FBS, 0.0632 µM
# [28] = RPMI 5 mM glucose + 10% dialyzed FBS, 0.19 µM
# [29] = RPMI 5 mM glucose + 10% dialyzed FBS, 0.569 µM
# [30] = RPMI 5 mM glucose + 10% dialyzed FBS, 1.71 µM
# [31] = RPMI 5 mM glucose + 10% dialyzed FBS, 5.12 µM
# [32] = RPMI 5 mM glucose + 10% dialyzed FBS, 15.4 µM
# [33] = RPMI 5 mM glucose + 10% dialyzed FBS, 46.1 µM
SMILES,cell viability [1] [%],cell viability [2] [%],cell viability [3] [%],cell viability [4] [%],cell viability [5] [%],cell viability [6] [%],cell viability [7] [%],cell viability [8] [%],cell viability [9] [%],cell viability [10] [%],cell viability [11] [%],cell viability [12] [%],cell viability [13] [%],cell viability [14] [%],cell viability [15] [%],cell viability [16] [%],cell viability [17] [%],cell viability [18] [%],cell viability [19] [%],cell viability [20] [%],cell viability [21] [%],cell viability [22] [%],cell viability [23] [%],cell viability [24] [%],cell viability [25] [%],cell viability [26] [%],cell viability [27] [%],cell viability [28] [%],cell viability [29] [%],cell viability [30] [%],cell viability [31] [%],cell viability [32] [%],cell viability [33] [%]
C[C@H](NC(=O)Cc1cc(F)cc(F)c1)C(=O)N[C@H](C(=O)OC(C)(C)C)c1ccccc1,100,96.2,91.7,89.2,102,69.9,92.1,85.6,79.7,87.9,70.2,103,92.3,98.3,105,107,87.3,96.5,88.6,102,88.7,71.4,90.6,91.6,80.6,103,96.9,89.2,91.3,79.6,74.7,86.9,70.3
Cc1ccc(C(=O)Nc2cccc(C(F)(F)F)c2)cc1Nc1nc(-c2cccnc2)nc2c1cnn2C,38.9,83.8,89.1,87.7,78.7,95.3,90.5,75.3,83.9,59,53.4,58.7,103,104,102,85.7,101,83,83,98.4,56.8,60.6,31,92.1,109,83.8,82.8,97.7,92.1,81.1,113,68.5,62.1
Cc1ccc(Nc2cc(-c3cccc(N4C(=O)c5ccccc5C4=O)c3)ncn2)cc1N[S+](C)(=O)[O-],102,97.9,131,117,126,123,117,137,123,123,76.2,123,95.8,137,138,128,132,142,166,133,132,105,122,117,119,119,135,115,127,154,136,142,77.7
COc1cc(C(=O)NC2CCN(C)CC2)ccc1Nc1ncc2c(n1)N(C1CCCC1)CCC(=O)N2C(C)C,81.4,95.1,119,104,105,112,6.04,104,94.8,59.1,13.5,95.4,106,119,130,119,120,6.08,98.1,96.5,54.2,55.1,83.4,109,117,120,112,111,5.18,102,96.5,53.8,60.8
CC1(C)SCCN([S+](=O)([O-])c2ccc(OCC#CCO)cc2)[C@H]1C(=O)NO,97.8,96.3,109,112,104,99.6,102,89.5,91.3,86.6,80.8,129,116,115,123,109,107,105,104,106,91.4,88.1,105,109,105,103,91.1,94.3,107,90.1,78.9,74.1,69.5
Cc1ccc([C@@H]2O[C@H](CO)[C@@H](O)[C@H](O)[C@H]2O)cc1Cc1ccc(-c2ccc(F)cc2)s1,108,112,117,112,130,114,119,115,110,125,101,109,117,112,122,114,117,123,121,111,118,69.5,113,103,106,118,132,119,109,98.7,107,116,71.2
COCCn1c2c([n+](Cc3cnccn3)c1C)C(=O)c1ccccc1C2=O,128,113,123,50.7,23.5,11.2,7.74,8.7,8.71,4.23,3.41,116,128,114,110,71.4,15.5,7.97,8.06,5.61,4.16,2.77,105,132,117,91.1,46.2,12.6,8.08,7.35,5.94,4.15,3.55
